Source: article PMC11161644, “An effective and rapidly degradable disinfectant from disinfection byproducts” (Nature Communications, 2024)
Where “and” joins values, the source holds several entries; their conditions need not be identical. Equal values may be shown once.

Columns and labels:
P. dumerilii embryos = assay: Developmental toxicity assay with P. dumerilii embryos, dilution factor of in-use concentration (EC50,DF), also after degradation in darkness; type: in vivo, Platynereis dumerilii; conditions: for Normal development: PCMX
Summary of the method: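 In-use DBP doses (3-log E. coli reduction, pH 7.2) were serially diluted onto embryos at 12 h postfertilization in seawater. Normal development to first larval stage was scored by microscopy at 24 h postfertilization, in duplicate. EC50,DF is the dilution factor giving 50% of control normal development.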

[1] = Degradation in seawater with simulated solar irradiation
Summary of the method: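 DBP at 10 mg L^−1 in pretreated seawater was irradiated with simulated sunlight (4.79 ± 0.04 mW cm^−2) at 20 °C for 0‒96 h, with dark samples alongside. pH was held at 8.2 or set to 6.2/7.2 with 4 mM phosphate buffer. Remaining compound and products were measured by HPLC-UV (230/280 nm), in duplicate.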

S. aureus (ATCC 25923) = assay: Inactivation of S. aureus (contact time 5 min); type: cell-based, Staphylococcus aureus
Summary of the method: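 Cells (10^6‒10^7 per mL) in 10 mM PBS pH 7.2 exposed to a series of DBP doses for 5 min at 22 ± 1 °C. Survivors enumerated by membrane filtration and colony counts after 24 h at 37 °C (S. aureus, Tryptone Soya; C. albicans, Sabouraud) relative to undisinfected control.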

[2] = Degradation in seawater in darkness (pH 6.2, 7.2, 8.2)
Summary of the method: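 DBP spiked at 10 mg L^−1 into pretreated seawater in foil-wrapped quartz flasks, held at 20 °C in darkness for 0‒120 h with 4 mM phosphate buffer at pH 6.2, 7.2 or 8.2. Aliquots analysed by reversed-phase HPLC-UV (230 or 280 nm); duplicate runs.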

With Cc1cc(O)cc(C)c1Cl [PCMX, para-chloro-meta-xylenol, reference compound] the Normal development (P. dumerilii embryos; degradation 0 h, dilution factor 6.7143) was 0%, the Normal development (P. dumerilii embryos; degradation 0 h, dilution factor 7.2308) was 4.232% and 2.756% and the Normal development (P. dumerilii embryos; degradation 0 h, dilution factor 7.6735) was 25.4292% and 17.7492%. For the same molecule, the Normal development (P. dumerilii embryos; degradation 0 h, dilution factor 8.1739) was 29.4152% and 29.5272%, the Normal development (P. dumerilii embryos; degradation 0 h, dilution factor 8.7442) was 46.2529% and 46.0367% and the Normal development (P. dumerilii embryos; degradation 0 h, dilution factor 9.4) was 56.894% and 62.197%. The Normal development (P. dumerilii embryos; degradation 0 h, dilution factor 10.4444) was 76.1488% and 70.708%, the Normal development (P. dumerilii embryos; degradation 0 h, dilution factor 11.75) was 84.2318% and 84.1758% and the Normal development (P. dumerilii embryos; degradation 48 h, dilution factor 6.7143) was 0%. For the same molecule, the Normal development (P. dumerilii embryos; degradation 48 h, dilution factor 7.2308) was 0%, the Normal development (P. dumerilii embryos; degradation 48 h, dilution factor 7.6735) was 5.72% and 1.379% and the Normal development (P. dumerilii embryos; degradation 48 h, dilution factor 8.1739) was 20.3803% and 14.4749%. For the same molecule, the Normal development (P. dumerilii embryos; degradation 48 h, dilution factor 8.7442) was 43.6056% and 44.3682%, the Normal development (P. dumerilii embryos; degradation 48 h, dilution factor 9.4) was 43.7739% and 49.5131% and the Normal development (P. dumerilii embryos; degradation 48 h, dilution factor 10.4444) was 54.207% and 47.1234%. For the same molecule, the Normal development (P. dumerilii embryos; degradation 48 h, dilution factor 11.75) was 73.3565% and 68.3577%, the “Normal development (%)” value (P. dumerilii embryos; dilution factor 6.7143 of in-use concentration) was 0% and the “Normal development (%)” value (P. dumerilii embryos; dilution factor 7.2308) was 4.232% and 2.756%. The “Normal development (%)” value (P. dumerilii embryos; dilution factor 7.6735) was 25.4292% and 17.7492%, the “Normal development (%)” value (P. dumerilii embryos; dilution factor 8.1739) was 29.4152% and 29.5272% and the “Normal development (%)” value (P. dumerilii embryos; dilution factor 8.7442) was 46.0367% and 46.2529%. For the same molecule, the “Normal development (%)” value (P. dumerilii embryos; dilution factor 9.4) was 62.197% and 56.894%, the “Normal development (%)” value (P. dumerilii embryos; dilution factor 10.4444) was 76.1488% and 70.708% and the “Normal development (%)” value (P. dumerilii embryos; dilution factor 11.75) was 84.2038%. The half-life at 10 mg L−1 ([1]; pretreated seawater under simulated solar irradiation, pH 8.2) was 10.7 days, the “Ln (C/C0)” value ([1]; seawater pH 8.2, solar irradiation, 0 h) was 0 and the log reduction at 300 µg/mL (S. aureus (ATCC 25923); Staphylococcus aureus, ATCC25923, 5 min, pH 7.2, S. aureus, dose 300 mg L-1, pH 7.2, contact time 5 min, read-out: Log (N/N0)) was 3.04. The “Dose for achieving 3-log inactivation of S. aureus” value (S. aureus (ATCC 25923); pH 7.2, contact time 5 min) was 308 mg L−1, the “S. aureus inactivation rate constant k” value (S. aureus (ATCC 25923); pH 7.2, contact time 5 min) was 3670 µL/min/mg and the half-life at 10 mg L−1 ([2]; pretreated seawater in darkness) was about 240 days. For the same molecule, the “Ln (C/C0)” value ([2]; seawater pH 8.2, darkness, 0 h) was 0 and the “Degradation in 120 h” value ([2]; seawater, absence of sunlight) was “less than 5%”.
